The target in test [1] is T1, PTP1B (human recombinant) (Homo sapiens, UniProt P18031).
T1 construct: purchased Enzo Life Sciences, Inc. (Lausen, Switzerland)
T1 sequence (P18031 1-435): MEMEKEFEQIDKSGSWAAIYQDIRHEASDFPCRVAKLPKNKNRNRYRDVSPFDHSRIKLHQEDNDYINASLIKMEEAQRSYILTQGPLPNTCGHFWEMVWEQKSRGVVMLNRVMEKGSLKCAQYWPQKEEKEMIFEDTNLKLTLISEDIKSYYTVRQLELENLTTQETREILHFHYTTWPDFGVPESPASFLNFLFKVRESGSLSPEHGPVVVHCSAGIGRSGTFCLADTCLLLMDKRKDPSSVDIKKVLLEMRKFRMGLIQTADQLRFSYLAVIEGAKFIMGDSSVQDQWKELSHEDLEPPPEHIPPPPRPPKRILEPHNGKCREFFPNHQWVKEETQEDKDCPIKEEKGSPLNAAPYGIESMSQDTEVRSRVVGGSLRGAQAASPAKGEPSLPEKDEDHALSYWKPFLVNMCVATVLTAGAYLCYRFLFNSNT
Kind of test: PTP1B inhibitory activity assay with p-NPP as substrate. The following applies: for IC50: p-NPP 4 mM, pH 6.0, 37 °C, 30 min, means ± SD, n = 3, NA = no activity >50 μM, read-out: IC50 against PTP1B. It is filed as biochemical. The procedure:
(§1) PTP1B inhibitory activity was measured using p-NPP as the substrate. A mixture consisting of p-NPP and PTP1B in a buffer containing 0.06 M citrate (pH 6.0), 0.1 M NaCl, 1 mM EDTA, and 1 mM DTT with or without a tested compound solution (prepared in the above buffer solution containing 30% dimethyl sulfoxide), was incubated at 37 °C for 30 min. The substrate was used at a concentration of 4 mM. The reaction was terminated by adding 20 µL of 10 M NaOH. The reaction mixture was blended by a microplate mixer for 5 min and the amount of produced p-nitrophenol was tested by measuring the absorbance at 405 nm. The blank was measured in the same way except adding a buffer solution instead of the enzyme.

Test [2] has as its target T1, PTP1B (human recombinant). Kind of test: Kinetic analysis of PTP1B inhibition (Lineweaver–Burk, secondary plot). It is filed as biochemical. The settings on record: for Inhibition type: Lineweaver–Burk, p-NPP 4, 8, 16 mM; for Ki: secondary plot of Lineweaver–Burk slopes. The procedure: as §1, with “enzyme. […] All compounds used for bioassay were confirmed the purity >98% by HPLC-PDA and ^1H NMR spectroscopic analyses.” for “enzyme.”
To elucidate the inhibition mode, the inhibition kinetics of compounds 1–5 were analyzed by the Lineweaver–Burk method with various substrate concentrations of p-NPP (4, 8, 16 mM). The initial reaction velocities were measured with and without the inhibitor.
(A) Lineweaver–Burk plots of compounds 1–5. The final concentration of compounds 1–5 was as follows: 1; 0, 1.0, 2.0, and 3.0 μM, 2; 0, 4.0, 6.0, and 8.0 μM, 3; 0, 1.3, 2.5, and 3.0 μM, 4; 0, 1.0, 2.0, and 3.0 μM, and 5; 0, 4.0, 6.0, and 8.0 μM. (B) The second plots of A.

Test [3] deals with T2, T-cell protein tyrosine phosphatase (TCPTP, human recombinant) (Homo sapiens, UniProt P17706).
T2 construct: purchased Enzo Life Sciences, Inc. (Lausen, Switzerland)
T2 sequence (P17706 1-415): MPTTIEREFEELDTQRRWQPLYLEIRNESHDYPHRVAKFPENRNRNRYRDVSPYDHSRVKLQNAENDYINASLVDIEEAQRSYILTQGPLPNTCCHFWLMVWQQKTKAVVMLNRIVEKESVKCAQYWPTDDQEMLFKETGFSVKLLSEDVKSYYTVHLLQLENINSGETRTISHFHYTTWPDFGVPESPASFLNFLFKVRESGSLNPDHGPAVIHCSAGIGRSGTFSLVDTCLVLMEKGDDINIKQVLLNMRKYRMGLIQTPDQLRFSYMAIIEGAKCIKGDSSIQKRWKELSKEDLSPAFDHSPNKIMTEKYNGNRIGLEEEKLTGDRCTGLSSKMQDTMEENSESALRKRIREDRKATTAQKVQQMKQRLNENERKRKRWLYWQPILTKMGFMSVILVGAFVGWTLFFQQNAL
Kind of test: TCPTP inhibitory activity assay with p-NPP. It is filed as biochemical. The settings on record: mean ± SD, three experiments, read-out: Inhibition rate (%) TCPTP.

Test [4] deals with T3, Vaccinia H1-related phosphatase (VHR, human recombinant) (Homo sapiens, UniProt P51452).
T3 construct: purchased Enzo Life Sciences, Inc. (Lausen, Switzerland)
Briefly: biochemical. The settings on record: read-out: Inhibition rate (%) VHR.

For test [5], the target named is T4, SHP-1 (human recombinant) (Homo sapiens, UniProt P29350).
T4 construct: purchased Sigma-Aldrich Co., LLC; (St Louis, MO)
Briefly: SHP-1 inhibitory activity assay with p-NPP. It is filed as biochemical. The settings on record: mean ± SD, three experiments, read-out: Inhibition rate (%) SHP-1.

Test [6] concerns the target T5, SHP-2 (human recombinant) (Homo sapiens, UniProt Q06124).
T5 construct: purchased Sigma-Aldrich Co., LLC; (St Louis, MO)
T5 sequence (Q06124 1-593): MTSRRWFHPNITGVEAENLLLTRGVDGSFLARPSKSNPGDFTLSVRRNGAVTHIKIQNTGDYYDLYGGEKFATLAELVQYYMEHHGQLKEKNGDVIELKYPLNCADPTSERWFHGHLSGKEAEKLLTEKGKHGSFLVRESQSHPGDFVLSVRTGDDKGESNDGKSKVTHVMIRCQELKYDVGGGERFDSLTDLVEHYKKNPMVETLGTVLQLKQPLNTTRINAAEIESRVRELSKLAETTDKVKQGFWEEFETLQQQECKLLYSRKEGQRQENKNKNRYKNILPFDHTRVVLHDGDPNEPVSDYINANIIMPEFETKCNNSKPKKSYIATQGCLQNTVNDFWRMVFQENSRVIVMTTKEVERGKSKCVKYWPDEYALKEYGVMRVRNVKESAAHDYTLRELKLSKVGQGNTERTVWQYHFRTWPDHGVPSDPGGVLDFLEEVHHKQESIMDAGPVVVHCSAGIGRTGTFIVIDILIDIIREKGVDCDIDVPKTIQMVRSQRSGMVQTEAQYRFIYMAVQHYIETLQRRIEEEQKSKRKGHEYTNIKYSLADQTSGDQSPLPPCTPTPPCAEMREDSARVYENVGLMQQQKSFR
Briefly: SHP-2 inhibitory activity assay with p-NPP. It counts as biochemical. The settings on record: mean ± SD, three experiments, read-out: Inhibition rate (%) SHP-2.

[7] abbreviates: mean ± SD, three experiments, read-out: Inhibition rate (%) PTP1B.

T4 sequence (P29350 whole entry): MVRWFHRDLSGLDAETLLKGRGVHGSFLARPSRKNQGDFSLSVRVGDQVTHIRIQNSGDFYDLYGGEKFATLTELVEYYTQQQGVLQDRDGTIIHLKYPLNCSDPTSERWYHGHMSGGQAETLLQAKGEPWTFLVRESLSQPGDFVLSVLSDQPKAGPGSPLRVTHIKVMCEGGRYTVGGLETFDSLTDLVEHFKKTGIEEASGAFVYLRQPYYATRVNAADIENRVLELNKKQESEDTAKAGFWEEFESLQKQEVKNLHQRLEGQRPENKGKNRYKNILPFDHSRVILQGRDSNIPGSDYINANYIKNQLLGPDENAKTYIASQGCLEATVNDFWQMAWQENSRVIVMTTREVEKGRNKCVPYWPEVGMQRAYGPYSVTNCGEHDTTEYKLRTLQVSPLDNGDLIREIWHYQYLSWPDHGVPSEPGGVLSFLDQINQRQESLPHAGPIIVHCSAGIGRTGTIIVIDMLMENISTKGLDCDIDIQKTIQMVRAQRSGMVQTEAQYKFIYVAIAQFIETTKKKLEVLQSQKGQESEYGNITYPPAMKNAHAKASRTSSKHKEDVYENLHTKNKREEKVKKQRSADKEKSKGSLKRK
T3 sequence (P51452 whole entry): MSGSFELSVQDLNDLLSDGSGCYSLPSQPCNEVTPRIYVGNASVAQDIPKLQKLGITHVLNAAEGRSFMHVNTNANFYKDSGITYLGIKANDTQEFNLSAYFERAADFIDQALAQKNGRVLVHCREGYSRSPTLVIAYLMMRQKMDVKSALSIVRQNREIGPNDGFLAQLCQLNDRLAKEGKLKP

The term IC50 denotes the concentration needed to halve the response being measured. Take `COc1cc(C2C3C=C(c4oc5cc(O)cc(O)c5c(=O)c4O)C4C2COC4(O)C3=O)ccc1O` (stereo not shown) [Compound 10, Dehydrosilydianin]: the IC50 in test [1] is more than 50 µM.
Turning to `COc1cc([C@@H]2Oc3c(O)cc(-c4oc5cc(O)cc(O)c5c(=O)c4O)cc3[C@H]2CO)ccc1O` [Compound 8, Dehydrosilychristin A], the IC50 in test [1] came to 7.18 ± 0.12 µM.
`COc1cc([C@@H]2Oc3c(O)ccc([C@H]4Oc5cc(O)cc(O)c5C(=O)[C@@H]4O)c3[C@H]2CO)ccc1O` [Compound 7, Isosilychristin A]: the IC50 in test [1] was determined as 6.55 ± 0.09 µM.
The term inhibition denotes the share of the control response that was lost under treatment. As a reminder, the Ki is a measure of affinity in units of concentration, obtained from inhibition or displacement. Turning to `COc1cc([C@@H]2Oc3c(O)cc([C@H]4Oc5cc(O)cc(O)c5C(=O)[C@@H]4O)cc3[C@H]2CO)ccc1O` [Compound 5, Silychristin A], the inhibition at 20 µM worked out at 89.2 ± 2.6% in test [1] (20 μM, mean ± SD, three experiments, read-out: Inhibition rate (%) PTP1B); 32.2 ± 1.9% in test [3] (20 μM); 67.5 ± 1.4% in test [4]; 25.9 ± 1.4% in test [5] (20 μM); 48.6 ± 1.9% in test [6] (20 μM). For the same compound, the IC50 in test [1] was found to be 5.58 ± 0.33 µM. Besides, the Inhibition type entry in test [2] is “Non-competitive”. In addition, the Ki in test [2] worked out at 3950 nM.
Regarding `COc1cc([C@H]2Oc3ccc([C@H]4Oc5cc(O)cc(O)c5C(=O)[C@@H]4O)cc3O[C@@H]2CO)ccc1O` [Compound 3, Isosilybin A], the inhibition at 6 µM in test [1] (6.0 μM, mean ± SD, three experiments, read-out: Inhibition rate (%) PTP1B) was 90.7 ± 1.1%; in test [3] (6.0 μM) it was 27.5 ± 0.8%; in test [4] it was 59.2 ± 2.4%; in test [5] (6.0 μM), 30.6 ± 1.8%; in test [6] (6.0 μM), 49 ± 2.1%. In test [1], the IC50 amounted to 2.65 ± 0.13 µM. Also, the Inhibition type result in test [2] is “Non-competitive”. Besides, the Ki in test [2] was found to be 2250 nM.
On to `COc1cc([C@H]2Oc3cc([C@H]4Oc5cc(O)cc(O)c5C(=O)[C@@H]4O)ccc3O[C@@H]2CO)ccc1O` [Compound 1, Silybin A], for which the inhibition at 4 µM in test [1] (setting [7]) was determined as 90.3 ± 0.9%; in test [3], 15.7 ± 1.9%; in test [4] it was 60.6 ± 2.2%; in test [5], 33.4 ± 0.4%; in test [6], 32.7 ± 1.8%. Moreover, the IC50 in test [1] turned out to be 1.54 ± 0.22 µM. Moreover, the Inhibition type entry in test [2] is on record as “Non-competitive”. In addition, in test [2], the Ki worked out at 1250 nM.
In the case of `COc1cc(C2C(C(=O)O)C=C(C3Oc4cc(O)cc(O)c4C(=O)C3O)C3C(=O)OCC32)ccc1O` (stereo not shown) [Compound 11, Silyamandin], the IC50 in test [1] came out at 17.4 ± 0.67 µM.
In the case of `COc1cc([C@H]2Oc3c(O)cc([C@H]4Oc5cc(O)cc(O)c5C(=O)[C@@H]4O)cc3[C@@H]2CO)ccc1O` [Compound 6, Silychristin B], the half-maximal inhibitory concentration (IC50) in test [1] worked out at 23.9 ± 2.25 µM.
As to `COc1cc([C@@H]2[C@H]3CO[C@@]4(O)C(=O)[C@@H]2C=C([C@H]2Oc5cc(O)cc(O)c5C(=O)[C@@H]2O)[C@@H]34)ccc1O` [Compound 9, Silydianin], the IC50 in test [1] is more than 50 µM.
As to `COc1cc([C@@H]2Oc3ccc([C@H]4Oc5cc(O)cc(O)c5C(=O)[C@@H]4O)cc3O[C@H]2CO)ccc1O` [Compound 4, Isosilybin B], the inhibition at 4 µM in test [1] (setting [7]) came out at 92.1 ± 1.7%; in test [3] it was 16.4 ± 1.5%; in test [4], 61.4 ± 3%; in test [5], 22.9 ± 2.1%; in test [6] it was 50.1 ± 1.5%. Moreover, the IC50 in test [1] was 1.37 ± 0.22 µM. The Inhibition type entry in test [2] was “Non-competitive”. Besides, the Ki in test [2] was determined as 1030 nM.
Take `COc1cc([C@@H]2Oc3cc([C@H]4Oc5cc(O)cc(O)c5C(=O)[C@@H]4O)ccc3O[C@H]2CO)ccc1O` [Compound 2, Silybin B]: the inhibition at 12 µM in test [1] (12 μM, mean ± SD, three experiments, read-out: Inhibition rate (%) PTP1B) was 89 ± 2.1%; in test [3] (12 μM) it was 32.1 ± 2.3%; in test [4], 65.6 ± 4.2%; in test [5] (12 μM), 34.4 ± 1.9%; in test [6] (12 μM), 37.5 ± 2.2%. Besides, the half-inhibitory concentration (IC50) in test [1] came to 5.65 ± 0.2 µM. Also, the Inhibition type result in test [2] is reported as “Non-competitive”. Besides, in test [2], the Ki was determined as 4050 nM.
